According to PMC11912471 (Journal of Medicinal Chemistry, 2025):
Counter-ions that a name gives are not always drawn.

Columns and labels:
[1] = target: T1, endogenous ODC in Kelly neuroblastoma cells (Homo sapiens, UniProt P11926); test: Cell-based ODC activity assay; conditions: 500 μM inhibitor, Figure 6A
T1 construct: host or cells: Kelly neuroblastoma cells
T1 sequence (P11926 1-461): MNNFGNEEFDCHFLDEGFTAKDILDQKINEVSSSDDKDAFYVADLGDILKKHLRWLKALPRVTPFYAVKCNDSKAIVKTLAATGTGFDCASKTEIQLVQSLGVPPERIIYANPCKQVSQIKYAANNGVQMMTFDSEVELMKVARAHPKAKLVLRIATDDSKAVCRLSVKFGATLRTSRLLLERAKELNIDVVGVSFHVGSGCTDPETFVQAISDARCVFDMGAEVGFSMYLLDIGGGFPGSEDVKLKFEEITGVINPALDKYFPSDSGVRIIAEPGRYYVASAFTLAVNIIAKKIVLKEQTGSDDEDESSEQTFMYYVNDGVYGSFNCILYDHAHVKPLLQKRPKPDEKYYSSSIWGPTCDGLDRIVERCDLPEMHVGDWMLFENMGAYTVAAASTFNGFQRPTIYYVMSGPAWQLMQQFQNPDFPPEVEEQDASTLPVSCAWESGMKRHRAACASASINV
Method: In vitro ODC activity was measured using 100 ng of purified human ODC enzyme, as we previously described.[53],[99] ODC was incubated with increasing concentrations of inhibitors for 30 min at room temperature in a buffer containing 25 mM Tris and 0.1 mM EDTA. Each of the reactions was added to 200 μL of assay mix containing 6.25 mM Tris HCl (pH 7.5), 100 μM L-ornithine, 50 μM pyridoxal-5-phosphate, 1.56 mM DTT and 0.1 μCi [1–14C] L-ornithine (American Radiolabeled Chemicals, Inc., specific activity 55 mCi/mmol) in a microcentrifuge tube. In the cell-based ODC activity assay, Kelly neuroblastoma cells that were treated with 500 μM inhibitors were harvested in a buffer containing 25 mM Tris HCl, 0.1 mM EDTA, and 2.5 mM DTT. Fifty microliters of each homogenate were added to 200 μL of assay mix containing 6.25 mM tris HCl (pH 7.5), 500 μM L-ornithine, 50 μM pyridoxal-5-phosphate, 1.56 mM DTT and 0.1 μCi [1–14C] L-ornithine (American Radiolabeled Chemicals, Inc., specific activity 55 mCi/mmol) in a microcentrifuge tube. […] Disintegrations per minute (DPM) of each sample was measured using a TriCarb liquid scintillation counter (PerkinElmer). The specific ODC activity is expressed as nmol CO2/min/mg protein (in vitro) or pmol CO2/min/mg protein (cell-based). The individual ODC inhibitor IC50 values were determined using Graphpad Prism 8.

[2] = test system: polyamine levels in Kelly neuroblastoma cells; test: Polyamine analysis (HPLC of dansylated polyamines); assay type: cell-based; conditions: 500 μM inhibitor; for Kelly Treated Neuroblastoma Cells (Total Spm): Control = 2.57+0.47; for Kelly Treated Neuroblastoma Cells (Spd): Control = 8.52+1.63; for Kelly Treated Neuroblastoma Cells (Total Put): Control = 9.71+1.31; for Kelly Treated Neuroblastoma Cells (Total PA): Control = 20.81 +2.67; for polyamine levels relative to control (in words) / putrescine level (in words): Figure 6B
Method: Polyamines from Kelly neuroblastoma cells treated with 500 μM inhibitors were isolated, dansylated, and analyzed by HPLC. Briefly, polyamines were extracted and protonated in perchloric acid/sodium chloride buffer. To 100 μL of sample, 4.5 nmol of 1,7 diaminoheptane internal standard and 200 μL of 1 M sodium carbonate was added prior to dansylation with 400 μL of 5 mg/mL dansyl chloride (Sigma-Aldrich) for 60 min at 65 °C. One hundred μL of 1 M proline was then added to each reaction and incubated for 20 min at 65 °C. Polyamines were extracted from the mixture using methylene chloride. The methylene chloride was allowed to evaporate, the samples were resuspended in methanol and run through a C18 cleanup column. Samples were then analyzed using a Thermo Scientific/Dionex Ultimate 3000 HPLC, using a Syncronis C18 column (250 × 4.6 mm, […] pore size), and containing a fluorescence detector. The dansylated polyamine peaks were visualized by excitation at 340 nm and emission at 515 nm. The buffers used for elution of the polyamines were as follows: buffer A: 10 mM sodium heptanesulfonate/10% acetontrile at pH 3.4. Buffer B: 100% acetonitrile. The flow rate was 0.7 mL per minute. The column was equilibrated with 55% buffer B/45% buffer A prior to injection of the sample. Upon injection of the sample, elution of polyamines occurs in an isocratic solution of 55% buffer B/45% buffer A for 28 min. The solution was then slowly ramped to 95% buffer B/5% buffer A for 20 min. This gradient was held for 27 min to elute the spermine peak. The solution was then quickly dropped back to 55% buffer B/45% buffer A to re-equilibrate the column prior to the next sample being injected. Using the relative molar response derived from N-dansylated PA and 1,7 diaminoheptane standards, the amount of N-dansylated polyamines was calculated and normalized to total sample protein.

## NCCCON [APA, 3-(Aminooxy)propan-1-Amine Dihydrochloride]
[1]
  endogenous cellular ODC activity relative to control (in words): significantly reduced
[2]
  Kelly Treated Neuroblastoma Cells (Total Spm): 5.09+1.39
  Kelly Treated Neuroblastoma Cells (Spd): 7.14+6.27
  Kelly Treated Neuroblastoma Cells (Total Put): 0
  Kelly Treated Neuroblastoma Cells (Total PA): 12.2+7.59
[2]; Kelly neuroblastoma cells
  polyamine levels relative to control (in words): reduced polyamine levels
  putrescine level (in words): undetected

## Cl.Cl.NOCC1(F)CCNC1 (stereo not drawn) [Compound 11, 3-[(aminooxy)methyl]-3-fluoropyrrolidine di-formic acid]
[1]
  endogenous cellular ODC activity relative to control (in words): greatest reduction
[2]
  Kelly Treated Neuroblastoma Cells (Total Spm): 2.74+0.46
  Kelly Treated Neuroblastoma Cells (Spd): 1.81+0.73
  Kelly Treated Neuroblastoma Cells (Total Put): 0
  Kelly Treated Neuroblastoma Cells (Total PA): 4.55+1.14
[2]; Kelly neuroblastoma cells
  polyamine levels relative to control (in words): reduced polyamine levels
  putrescine level (in words): undetected
[2]; Kelly neuroblastoma cells, relative to APA
  spermidine and spermine levels (in words): greatest reductions
